What was measured:
Experiment in all cases: relative viability (nuclei count vs DMSO), 5 days (fraction); higher = more cells survive
[1] = tested on: NCI-H1355
In short: (§1)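 Each reported value is a median over duplicate plates. It expresses relative viability: treated-well nuclei count divided by vehicle-well nuclei count. Lung cancer cell lines in 1536-well plates were dosed by pin tool a day after seeding, alone with one drug or with a fixed anchor-drug dose plus five library-drug doses (not always all listed) in √10 steps, and nuclei were counted after 5 days.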

[2] = tested on: NCI-H2170
In short: as §1

[3] = tested on: NCI-H1734
In short: as §1

[4] = tested on: LOU-NH91
In short: as §1

[5] = tested on: NCI-H2405
In short: as §1

[6] = tested on: NCI-H1395
In short: as §1

[7] = tested on: NCI-H647
In short: as §1

[8] = tested on: HCC-827
In short: as §1

[9] = tested on: BEN
In short: as §1

[10] = tested on: HCC-366
In short: as §1

[11] = tested on: EKVX
In short: as §1

[12] = tested on: NCI-H2342
In short: as §1

[13] = tested on: HARA
In short: as §1

[14] = tested on: NCI-H1792
In short: as §1

[15] = tested on: NCI-H1437
In short: as §1

[16] = tested on: NCI-H522
In short: as §1

[17] = tested on: NCI-H2087
In short: as §1

[18] = tested on: NCI-H1993
In short: as §1

**Q.** For `Nc1ccn([C@@H]2O[C@H](CO)[C@@H](O)[C@@H]2O)c(=O)n1` [Cytarabine] + NC(=O)Nc1cc(-c2cccc(F)c2)sc1C(=O)N[C@H]1CCCNC1 [AZD7762] (partner 0.2 µM), which relative viability ([1]; first compound 0.005 µM) is on record?
**A.** 0.455

**Q.** What about the relative viability ([1]; first compound 0.01581 µM) of the same compound?
**A.** 0.455

**Q.** What about the relative viability ([1]; first compound 0.05 µM) of the same compound?
**A.** 0.356

**Q.** And the relative viability ([1]; first compound 0.1581 µM)?
**A.** 0.181

**Q.** And the relative viability ([1]; first compound 0.5 µM)?
**A.** 0.188

**Q.** What about the relative viability ([2]; first compound 0.005 µM) of the same compound?
**A.** 0.666

**Q.** What about the relative viability ([2]; first compound 0.01581 µM) of the same compound?
**A.** 0.515

**Q.** And the relative viability ([2]; first compound 0.05 µM)?
**A.** 0.347

**Q.** And the relative viability ([2]; first compound 0.1581 µM)?
**A.** 0.173

**Q.** And the relative viability ([2]; first compound 0.5 µM)?
**A.** 0.136

**Q.** What about the relative viability ([3]; first compound 0.005 µM) of the same compound?
**A.** 0.258

**Q.** What about the relative viability ([3]; first compound 0.01581 µM) of the same compound?
**A.** 0.172

**Q.** And the relative viability ([3]; first compound 0.05 µM)?
**A.** 0.159

**Q.** And the relative viability ([3]; first compound 0.1581 µM)?
**A.** 0.0997

**Q.** And the relative viability ([3]; first compound 0.5 µM)?
**A.** 0.102

**Q.** What about the relative viability ([4]; first compound 0.005 µM) of the same compound?
**A.** 0.645

**Q.** And the relative viability ([4]; first compound 0.01581 µM)?
**A.** 0.803

**Q.** And the relative viability ([4]; first compound 0.05 µM)?
**A.** 0.708

**Q.** And the relative viability ([4]; first compound 0.1581 µM)?
**A.** 0.548

**Q.** And the relative viability ([4]; first compound 0.5 µM)?
**A.** 0.252

**Q.** And the relative viability ([5]; first compound 0.005 µM)?
**A.** 0.612

**Q.** And the relative viability ([5]; first compound 0.01581 µM)?
**A.** 0.454

**Q.** What about the relative viability ([5]; first compound 0.05 µM) of the same compound?
**A.** 0.445

**Q.** And the relative viability ([5]; first compound 0.1581 µM)?
**A.** 0.249

**Q.** What about the relative viability ([5]; first compound 0.5 µM) of the same compound?
**A.** 0.217

**Q.** And the relative viability ([6]; first compound 0.005 µM)?
**A.** 0.383

**Q.** What about the relative viability ([6]; first compound 0.01581 µM) of the same compound?
**A.** 0.39

**Q.** What about the relative viability ([6]; first compound 0.05 µM) of the same compound?
**A.** 0.331

**Q.** And the relative viability ([6]; first compound 0.1581 µM)?
**A.** 0.364

**Q.** And the relative viability ([6]; first compound 0.5 µM)?
**A.** 0.351

**Q.** And the relative viability ([7]; first compound 0.005 µM)?
**A.** 0.188

**Q.** And the relative viability ([7]; first compound 0.01581 µM)?
**A.** 0.0767

**Q.** What about the relative viability ([7]; first compound 0.05 µM) of the same compound?
**A.** 0.0765

**Q.** What about the relative viability ([7]; first compound 0.1581 µM) of the same compound?
**A.** 0.0321

**Q.** What about the relative viability ([7]; first compound 0.5 µM) of the same compound?
**A.** 0.0304

**Q.** What about the relative viability ([8]; first compound 0.005 µM) of the same compound?
**A.** 0.17

**Q.** What about the relative viability ([8]; first compound 0.01581 µM) of the same compound?
**A.** 0.168

**Q.** What about the relative viability ([8]; first compound 0.05 µM) of the same compound?
**A.** 0.13

**Q.** What about the relative viability ([8]; first compound 0.1581 µM) of the same compound?
**A.** 0.14

**Q.** What about the relative viability ([8]; first compound 0.5 µM) of the same compound?
**A.** 0.148

**Q.** What about the relative viability ([9]; first compound 0.005 µM) of the same compound?
**A.** 0.588

**Q.** What about the relative viability ([9]; first compound 0.01581 µM) of the same compound?
**A.** 0.425

**Q.** And the relative viability ([9]; first compound 0.05 µM)?
**A.** 0.296

**Q.** What about the relative viability ([9]; first compound 0.1581 µM) of the same compound?
**A.** 0.259

**Q.** What about the relative viability ([9]; first compound 0.5 µM) of the same compound?
**A.** 0.241

**Q.** And the relative viability ([10]; first compound 0.005 µM)?
**A.** 0.139

**Q.** And the relative viability ([10]; first compound 0.01581 µM)?
**A.** 0.0915

**Q.** What about the relative viability ([10]; first compound 0.05 µM) of the same compound?
**A.** 0.107

**Q.** What about the relative viability ([10]; first compound 0.1581 µM) of the same compound?
**A.** 0.0525

**Q.** What about the relative viability ([10]; first compound 0.5 µM) of the same compound?
**A.** 0.038

**Q.** What about the relative viability ([11]; first compound 0.005 µM) of the same compound?
**A.** 0.697

**Q.** And the relative viability ([11]; first compound 0.01581 µM)?
**A.** 0.676

**Q.** And the relative viability ([11]; first compound 0.05 µM)?
**A.** 0.329

**Q.** And the relative viability ([11]; first compound 0.5 µM)?
**A.** 0.67

**Q.** And the relative viability ([12]; first compound 0.005 µM)?
**A.** 0.472

**Q.** And the relative viability ([12]; first compound 0.01581 µM)?
**A.** 0.385

**Q.** What about the relative viability ([12]; first compound 0.05 µM) of the same compound?
**A.** 0.397

**Q.** And the relative viability ([12]; first compound 0.1581 µM)?
**A.** 0.377

**Q.** What about the relative viability ([12]; first compound 0.5 µM) of the same compound?
**A.** 0.301

**Q.** And the relative viability ([13]; first compound 0.005 µM)?
**A.** 0.298

**Q.** What about the relative viability ([13]; first compound 0.01581 µM) of the same compound?
**A.** 0.211

**Q.** What about the relative viability ([13]; first compound 0.05 µM) of the same compound?
**A.** 0.176

**Q.** And the relative viability ([13]; first compound 0.1581 µM)?
**A.** 0.157

**Q.** What about the relative viability ([13]; first compound 0.5 µM) of the same compound?
**A.** 0.171

**Q.** What about the relative viability ([14]; first compound 0.01581 µM) of the same compound?
**A.** 0.39

**Q.** And the relative viability ([14]; first compound 0.05 µM)?
**A.** 0.275

**Q.** And the relative viability ([14]; first compound 0.1581 µM)?
**A.** 0.0675

**Q.** And the relative viability ([14]; first compound 0.5 µM)?
**A.** 0.0488

**Q.** And the relative viability ([15]; first compound 0.005 µM)?
**A.** 1.04

**Q.** What about the relative viability ([15]; first compound 0.01581 µM) of the same compound?
**A.** 0.549

**Q.** What about the relative viability ([15]; first compound 0.05 µM) of the same compound?
**A.** 0.321

**Q.** And the relative viability ([15]; first compound 0.1581 µM)?
**A.** 0.167

**Q.** And the relative viability ([15]; first compound 0.5 µM)?
**A.** 0.146

**Q.** What about the relative viability ([16]; first compound 0.005 µM) of the same compound?
**A.** 0.827

**Q.** What about the relative viability ([16]; first compound 0.01581 µM) of the same compound?
**A.** 0.605

**Q.** And the relative viability ([16]; first compound 0.05 µM)?
**A.** 0.72

**Q.** What about the relative viability ([16]; first compound 0.1581 µM) of the same compound?
**A.** 0.426

**Q.** And the relative viability ([16]; first compound 0.5 µM)?
**A.** 0.34

**Q.** And the relative viability ([17]; first compound 0.005 µM)?
**A.** 1.28

**Q.** And the relative viability ([17]; first compound 0.01581 µM)?
**A.** 1.56

**Q.** What about the relative viability ([17]; first compound 0.05 µM) of the same compound?
**A.** 1.11

**Q.** What about the relative viability ([17]; first compound 0.1581 µM) of the same compound?
**A.** 0.709

**Q.** And the relative viability ([17]; first compound 0.5 µM)?
**A.** 0.231

**Q.** And the relative viability ([18]; first compound 0.005 µM)?
**A.** 0.766

**Q.** And the relative viability ([18]; first compound 0.01581 µM)?
**A.** 0.562

**Q.** And the relative viability ([18]; first compound 0.05 µM)?
**A.** 0.654

**Q.** And the relative viability ([18]; first compound 0.1581 µM)?
**A.** 0.523

**Q.** What about the relative viability ([18]; first compound 0.5 µM) of the same compound?
**A.** 0.523
